Data: patent US20230146455A1, “TREATMENT OF INFLAMMATORY DISEASES WITH PEPTIDES AND PHARMACEUTICAL COMPOSITIONS” (Yuyu Pharma, Inc., priority 2020, published 2023)
Values joined by “and” are separate entries in the source; they are usually repeats but may differ in a detail not shown here. Equal entries are not always repeated. Where a SMILES comes first, the peptide text is derived from it. [ ]: non-standard residue; d: D form. Hyp = O=C(O)[C@@H]1C[C@@H](O)CN1

Assays:
IL-6 = experiment: Example 9 Luminex, LPS hPBMCs: IL-6; format: cell-based, human; details: Bead IL-6, PBMC + LPS(5 ug/ml)
Experimental: (§1) Treatment Human PBMCs were pretreated with YY-101, YDE-011 and YDE-043 or reference compound; Xiidra® at various concentration (ranging from 1 nM to 100 uM) for 2 h before stimulation. An equal volume of 0.5% DMSO was used as a vehicle control. Then, the cells were treated with LPS at 5 ug/ml. The supernatants from treated cells were harvested at 24 h and placed in a 96 well for Luminex cytokine & chemokine profiling using a Luminex 200 multiplex assay (Luminex; R&D system, USA).
(§2) The main study arm with triplicate wells per group in a 24-well plate: • 1. Blank • 2. PBMC: 0.5% DMSO • 3. PBMC+LPS (5 ug/ml) • 4. PBMC+YY-101 100 uM • 5. PBMC+YY-101 10 uM • 6. PBMC+YY-101 1 uM • 7. PBMC+YY-101 0.1 uM • 8. PBMC+YY-101 0.01 uM • 9. PBMC+LPS (5 ug/ml)+Xiidra®100 uM • 10. PBMC+LPS (5 ug/ml)+Xiidra® 10 uM • 11. PBMC+LPS (5 ug/ml)+Xiidra® 1 uM • 12. PBMC+LPS (5 ug/ml)+Xiidra®0.1 uM • 13. PBMC+LPS (5 ug/ml)+Xiidra®0.01 uM • 14. PBMC+LPS (5 ug/ml)+Xiidra®0.001 uM • 15. PBMC+LPS (5 ug/ml)+YY-101 100 uM • 16. PBMC+LPS (5 ug/ml)+YY-101 10 uM • 17. PBMC+LPS (5 ug/ml)+YY-101 1 uM • 18. PBMC+LPS (5 ug/ml)+YY-101 0.1 uM • 19. PBMC+LPS (5 ug/ml)+YY-101 0.01 uM • 20. PBMC+LPS (5 ug/ml)+YY-101 0.001 uM • 21. PBMC+LPS (5 ug/ml)+YDE-011 100 uM • 22. PBMC+LPS (5 ug/ml)+YDE-011 10 uM • 23. PBMC+LPS (5 ug/ml)+YDE-011 1 uM • 24. PBMC+LPS (5 ug/ml)+YDE-011 0.1 uM • 25. PBMC+LPS (5 ug/ml)+YDE-011 0.01 uM • 26. PBMC+LPS (5 ug/ml)+YDE-011 0.001 uM • 27. PBMC+LPS (5 ug/ml)+YDE-043 100 uM • 28. PBMC+LPS (5 ug/ml)+YDE-043 10 uM • 29. PBMC+LPS (5 ug/ml)+YDE-043 1 uM • 30. PBMC+LPS (5 ug/ml)+YDE-043 0.1 uM • 31. PBMC+LPS (5 ug/ml)+YDE-043 0.01 uM • 32. PBMC+LPS (5 ug/ml)+YDE-043 0.001 uM
(§3) Multiplex assay was used to measure 30 cytokines and chemokines. The 1:2, 1:10 and 1:200 diluted cell supernatant and serial dilution of the standard were dispensed into a 96 well plate at 50 ul/well. Then, the pre-mixed cocktail of antibody-coated magnetic beads was dispensed at 50 ul/well and incubated at room temperature for 2 h in a horizontal orbital microplate shaker at 800±500 rpm. The beads were washed using a magnetic device to prevent loss. The biotin-antibody was dispensed in 50 ul of each well and incubated at room temperature for 1 h in a shaker at 800±500 rpm. After washing, streptavidin-PE was added at 50 ul/well and incubated at room temperature for 30 min in a shaker under the same conditions. Finally, after washing, wash buffer (100 ul/well) was added to the plate and incubated in a shaker for 2 min. The Luminex™ 200 setting were set according to the manufacturer's protocol. The data was calculated with a standard five-parameter logistic nonlinear regression analysis of the data (xPonent software 4.2, USA). The levels of cytokine/chemokine are normalized to the live cell counts (1×10^5 cells/mL) and presented as concentrations per mL (pg/mL or ng/mL).

CCL2/JE/MCP-1 = experiment: Example 9 Luminex, LPS hPBMCs: CCL2/JE/MCP-1; format: cell-based, human
Experimental: as §1, §2, §3

[1] = PBMC + LPS(5 ug/ml) + test article 0.001 uM, Mean
[2] = PBMC + LPS(5 ug/ml) + test article 0.001 uM, individual replicates
[3] = PBMC + LPS(5 ug/ml) + test article 0.01 uM, Mean
[4] = PBMC + LPS(5 ug/ml) + test article 0.01 uM, individual replicates
[5] = PBMC + LPS(5 ug/ml) + test article 0.1 uM, Mean
[6] = PBMC + LPS(5 ug/ml) + test article 0.1 uM, individual replicates
[7] = PBMC + LPS(5 ug/ml) + test article 1 uM, Mean
[8] = PBMC + LPS(5 ug/ml) + test article 1 uM, individual replicates
[9] = PBMC + LPS(5 ug/ml) + test article 10 uM, Mean
[10] = PBMC + LPS(5 ug/ml) + test article 10 uM, individual replicates
[11] = PBMC + LPS(5 ug/ml) + test article 100 uM, Mean
[12] = PBMC + LPS(5 ug/ml) + test article 100 uM, individual replicates

Compound CC(C)C[C@H](NC(=O)[C@H](CCC(N)=O)NC(=O)CNC(=O)[C@@H]1C[C@@H](O)CN1)C(=O)NCC(=O)O [YDE-043] (H-[Hyp]GQLG-OH; N-terminus and C-terminus assumed) has a Concentration (IL-6; 0.001 uM, Mean) of 7090.4 pg/mL, an MFI (IL-6; 0.001 uM, Mean) of 197.1 and a conc/live cell (IL-6; 0.001 uM, Mean) of 1434.2 pg/10^5. For the same compound, the Concentration (IL-6; 0.001 uM, single replicates) was 6355.1 pg/mL and 7578.4 pg/mL and 7337.9 pg/mL, the MFI (IL-6; 0.001 uM, single replicates) was 175.8 and 211.3 and 204.3 and the conc/live cell (IL-6; 0.001 uM, single replicates) was 1444.3 pg/10^5 and 1263.1 pg/10^5 and 1595.2 pg/10^5. It also gave a Concentration (IL-6; 0.01 uM, Mean) of 6942.0 pg/mL, an MFI (IL-6; 0.01 uM, Mean) of 192.8 and a conc/live cell (IL-6; 0.01 uM, Mean) of 1327.4 pg/10^5. The Concentration (IL-6; 0.01 uM, single replicates) was 7062.6 pg/mL and 7011.0 pg/mL and 6752.4 pg/mL, the MFI (IL-6; 0.01 uM, single replicates) was 196.3 and 194.8 and 187.3 and the conc/live cell (IL-6; 0.01 uM, single replicates) was 1569.5 pg/10^5 and 1062.3 pg/10^5 and 1350.5 pg/10^5. For the same compound, the Concentration (IL-6; 0.1 uM, Mean) was 6590.8 pg/mL, the MFI (IL-6; 0.1 uM, Mean) was 182.6 and the conc/live cell (IL-6; 0.1 uM, Mean) was 1223.6 pg/10^5. For the same compound, the Concentration (IL-6; 0.1 uM, single replicates) was 6528.0 pg/mL and 6147.3 pg/mL and 7097.1 pg/mL, the MFI (IL-6; 0.1 uM, single replicates) was 180.8 and 169.8 and 197.3 and the conc/live cell (IL-6; 0.1 uM, single replicates) was 1305.6 pg/10^5 and 1097.7 pg/10^5 and 1267.3 pg/10^5. The Concentration (IL-6; 1 uM, Mean) was 6992.5 pg/mL, the MFI (IL-6; 1 uM, Mean) was 194.3 and the conc/live cell (IL-6; 1 uM, Mean) was 1321.1 pg/10^5. For the same compound, the Concentration (IL-6; 1 uM, single replicates) was 7131.5 pg/mL and 6164.6 pg/mL and 7681.3 pg/mL, the MFI (IL-6; 1 uM, single replicates) was 198.3 and 170.3 and 214.3 and the conc/live cell (IL-6; 1 uM, single replicates) was 1229.6 pg/10^5 and 1284.3 pg/10^5 and 1449.3 pg/10^5. For the same compound, the Concentration (IL-6; 10 uM, Mean) was 9513.9 pg/mL, the MFI (IL-6; 10 uM, Mean) was 268.1 and the conc/live cell (IL-6; 10 uM, Mean) was 1764.4 pg/10^5. For the same compound, the Concentration (IL-6; 10 uM, single replicates) was 7303.5 pg/mL and 14554.8 pg/mL and 6683.4 pg/mL, the MFI (IL-6; 10 uM, single replicates) was 203.3 and 415.8 and 185.3 and the conc/live cell (IL-6; 10 uM, single replicates) was 1404.5 pg/10^5 and 2695.3 pg/10^5 and 1193.5 pg/10^5. It also gave a Concentration (IL-6; 100 uM, Mean) of 7286.3 pg/mL, an MFI (IL-6; 100 uM, Mean) of 202.8 and a conc/live cell (IL-6; 100 uM, Mean) of 1157.1 pg/10^5. For the same compound, the Concentration (IL-6; 100 uM, single replicates) was 7389.4 pg/mL and 7183.1 pg/mL, the MFI (IL-6; 100 uM, single replicates) was 205.8 and 199.8 and the conc/live cell (IL-6; 100 uM, single replicates) was 1191.8 pg/10^5 and 1122.4 pg/10^5. For the same compound, the Concentration (CCL2/JE/MCP-1; [1]) was 2109.3 pg/mL, the conc/live cell (CCL2/JE/MCP-1; [1]) was 427.9 pg/10^5 and the Concentration (CCL2/JE/MCP-1; [2]) was 2082.8 pg/mL and 2215.5 pg/mL and 2029.7 pg/mL. For the same compound, the conc/live cell (CCL2/JE/MCP-1; [2]) was 473.4 pg/10^5 and 369.2 pg/10^5 and 441.2 pg/10^5, the Concentration (CCL2/JE/MCP-1; [3]) was 2023.7 pg/mL and the conc/live cell (CCL2/JE/MCP-1; [3]) was 388.1 pg/10^5. For the same compound, the Concentration (CCL2/JE/MCP-1; [4]) was 2036.2 pg/mL and 1963.4 pg/mL and 2071.4 pg/mL, the conc/live cell (CCL2/JE/MCP-1; [4]) was 452.5 pg/10^5 and 297.5 pg/10^5 and 414.3 pg/10^5 and the Concentration (CCL2/JE/MCP-1; [5]) was 1922.5 pg/mL. For the same compound, the conc/live cell (CCL2/JE/MCP-1; [5]) was 358.4 pg/10^5, the Concentration (CCL2/JE/MCP-1; [6]) was 2109.9 pg/mL and 1768.2 pg/mL and 1889.5 pg/mL and the conc/live cell (CCL2/JE/MCP-1; [6]) was 422.0 pg/10^5 and 315.8 pg/10^5 and 337.4 pg/10^5. The Concentration (CCL2/JE/MCP-1; [7]) was 2123.4 pg/mL, the conc/live cell (CCL2/JE/MCP-1; [7]) was 402.7 pg/10^5 and the Concentration (CCL2/JE/MCP-1; [8]) was 2174.1 pg/mL and 2114.7 pg/mL and 2081.5 pg/mL. The conc/live cell (CCL2/JE/MCP-1; [8]) was 374.9 pg/10^5 and 440.6 pg/10^5 and 392.7 pg/10^5, the Concentration (CCL2/JE/MCP-1; [9]) was 1799.9 pg/mL and the conc/live cell (CCL2/JE/MCP-1; [9]) was 333.9 pg/10^5. The Concentration (CCL2/JE/MCP-1; [10]) was 1889.0 pg/mL and 1766.4 pg/mL and 1744.2 pg/mL, the conc/live cell (CCL2/JE/MCP-1; [10]) was 363.3 pg/10^5 and 327.1 pg/10^5 and 311.5 pg/10^5 and the Concentration (CCL2/JE/MCP-1; [11]) was 281.0 pg/mL. The conc/live cell (CCL2/JE/MCP-1; [11]) was 44.6 pg/10^5, the Concentration (CCL2/JE/MCP-1; [12]) was 258.9 pg/mL and 303.0 pg/mL and the conc/live cell (CCL2/JE/MCP-1; [12]) was 41.8 pg/10^5 and 47.3 pg/10^5.
